Source: ChEMBL document CHEMBL4052642, “4-Methyl-6,7-dihydro-4H-triazolo[4,5-c]pyridine-Based P2X7 Receptor Antagonists: Optimization of Pharmacokinetic Properties Leading to the Identification of a Clinical Candidate” (J Med Chem, 2017)
≈ marks a conversion by molar mass, not a printed value. Values belong to the compound of their own block, whether it stands above or below them.

Assays:
Rattus norvegicus [1] = experiment: Toxicity in rat assessed as autoinduction at 50 to 150 mg/kg administered via oral gavage on day 1 and day 4; type: organism-based; conditions: in vivo
Rattus norvegicus [2] = experiment: Toxicity in rat assessed as increase in liver weight at 50 to 150 mg/kg administered via oral gavage on day 1 and day 4; type: organism-based; conditions: in vivo
Rattus norvegicus [3] = experiment: Toxicity in rat assessed as hepatic lipidosis at 50 to 350 mg/kg administered via oral gavage on day 1 and day 4 measured on day 5 by hematoxylin/eosin staining-based microscopic method; type: organism-based; conditions: in vivo
Plasma = experiment: Plasma concentration in rat at 250 mg/kg administered single dose via oral gavage; type: ADME, organism-based; conditions: in vivo
Rattus norvegicus [4] = experiment: Toxicity in rat assessed as ataxia at 500 to 1000 mg/kg administered single dose via oral gavage; type: organism-based; conditions: in vivo
Rattus norvegicus [5] = experiment: Toxicity in rat assessed as decrease in activity at 250 to 1000 mg/kg administered single dose via oral gavage; type: organism-based; conditions: in vivo
Cytochrome P450 2C9 [6] = molecular target: T1, Cytochrome P450 2C9 (Homo sapiens, UniProt P11712); experiment: Drug metabolism assessed as recombinant human CYP2C9-mediated metabolite formation; type: ADME; conditions: recombinant enzyme
Cytochrome P450 2C19 [7] = molecular target: T2, Cytochrome P450 2C19 (Homo sapiens, UniProt P33261); experiment: Drug metabolism assessed as recombinant human CYP2C19-mediated metabolite formation; type: ADME; conditions: recombinant enzyme
Rattus norvegicus [8] = experiment: Drug metabolism in Sprague-Dawley rat assessed as formation of (R)-(2-chloro-3-(trifluoromethyl)phenyl)(4-methyl-1,4,6,7-tetrahydro-5H-[1,2,3]triazolo[4,5-c]pyridin-5-yl)methanone at 1 mg/kg, iv or 5 mg/kg, po by LC-MS/MS analysis; type: ADME, organism-based; conditions: in vivo
[9] = Drug excretion in Sprague-Dawley rat at 1 mg/kg, iv or 5 mg/kg, po by LC-MS/MS analysis; type: ADME, organism-based; conditions: in vivo, read-out: Drug excretion
[10] = Oral bioavailability in Balb/c mouse at 5 mg/kg by LC-MS/MS analysis; type: ADME, organism-based; conditions: in vivo
[11] = Oral bioavailability in cynomolgus monkey at 5 mg/kg by LC-MS/MS analysis; type: ADME, organism-based, Macaca fascicularis; conditions: in vivo
[12] = Oral bioavailability in beagle dog at 2.5 mg/kg by LC-MS/MS analysis; type: ADME, organism-based, Canis lupus familiaris; conditions: beagle, in vivo
[13] = Half life in Balb/c mouse at 1 mg/kg, iv by LC-MS/MS analysis; type: ADME, organism-based; conditions: in vivo
[14] = Half life in cynomolgus monkey at 1 mg/kg, iv by LC-MS/MS analysis; type: ADME, organism-based, Macaca fascicularis; conditions: in vivo
[15] = Half life in beagle dog at 0.5 mg/kg, iv by LC-MS/MS analysis; type: ADME, organism-based, Canis lupus familiaris; conditions: in vivo
[16] = Volume of distribution at steady state in Balb/c mouse at 1 mg/kg, iv or 5 mg/kg, po by LC-MS/MS analysis; type: ADME, organism-based; conditions: in vivo, read-out: Vdss
[17] = Volume of distribution at steady state in cynomolgus monkey at 1 mg/kg, iv or 5 mg/kg, po by LC-MS/MS analysis; type: ADME, organism-based, Macaca fascicularis; conditions: in vivo, read-out: Vdss
[18] = Volume of distribution at steady state in beagle dog at 0.5 mg/kg, iv or 2.5 mg/kg, po by LC-MS/MS analysis; type: ADME, organism-based, Canis lupus familiaris; conditions: in vivo, read-out: Vdss
[19] = Clearance in cynomolgus monkey at 1 mg/kg, iv or 5 mg/kg, po by LC-MS/MS analysis; type: ADME, organism-based, Macaca fascicularis; conditions: in vivo
[20] = Clearance in beagle dog at 0.5 mg/kg, iv or 2.5 mg/kg, po by LC-MS/MS analysis; type: ADME, organism-based, Canis lupus familiaris; conditions: in vivo
[21] = Clearance in Balb/c mouse at 1 mg/kg, iv or 5 mg/kg, po by LC-MS/MS analysis; type: ADME, organism-based; conditions: in vivo
Cytochrome P450 3A4 = Cytochrome P450 3A4 (Homo sapiens, UniProt P08684); experiment: Inhibition of CYP3A4 in human liver microsomes using midazolam as substrate after 15 mins by LC-MS/MS analysis; type: ADME
Cytochrome P450 2D6 = Cytochrome P450 2D6 (Homo sapiens, UniProt P10635); experiment: Inhibition of CYP2D6 in human liver microsomes using dextromethorphan as substrate after 15 mins by LC-MS/MS analysis; type: ADME
Cytochrome P450 2C9 [22] = molecular target: T1, Cytochrome P450 2C9; experiment: Inhibition of CYP2C9 in human liver microsomes using diclofenac as substrate after 15 mins by LC-MS/MS analysis; type: ADME
Cytochrome P450 2C19 [23] = molecular target: T2, Cytochrome P450 2C19; experiment: Inhibition of CYP2C19 in human liver microsomes using S-mephenytoin as substrate after 15 mins by LC-MS/MS analysis; type: ADME
Cytochrome P450 2C8 = molecular target: T3, Cytochrome P450 2C8 (Homo sapiens, UniProt P10632); experiment: Inhibition of CYP2C8 in human liver microsomes using paclitaxel as substrate after 15 mins by LC-MS/MS analysis; type: ADME
T3 sequence (P10632 whole entry): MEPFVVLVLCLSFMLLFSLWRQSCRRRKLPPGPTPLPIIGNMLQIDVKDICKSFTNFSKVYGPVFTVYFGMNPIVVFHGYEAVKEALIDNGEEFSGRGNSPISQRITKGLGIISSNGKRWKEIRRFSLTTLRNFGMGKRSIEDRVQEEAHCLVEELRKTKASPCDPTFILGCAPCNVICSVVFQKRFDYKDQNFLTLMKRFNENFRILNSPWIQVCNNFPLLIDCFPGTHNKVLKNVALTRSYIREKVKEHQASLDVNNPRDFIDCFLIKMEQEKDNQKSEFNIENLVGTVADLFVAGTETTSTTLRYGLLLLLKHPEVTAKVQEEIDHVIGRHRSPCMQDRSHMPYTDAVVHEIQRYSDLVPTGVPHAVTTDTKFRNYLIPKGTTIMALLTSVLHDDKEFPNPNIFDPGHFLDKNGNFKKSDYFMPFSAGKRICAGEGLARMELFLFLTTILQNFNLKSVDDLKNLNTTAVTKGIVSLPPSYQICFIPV

Cytochrome P450 1A2 = molecular target: T4, Cytochrome P450 1A2 (Homo sapiens, UniProt P05177); experiment: Inhibition of CYP1A2 in human liver microsomes using phenacetin as substrate after 15 mins by LC-MS/MS analysis; type: ADME
T4 sequence (P05177 whole entry): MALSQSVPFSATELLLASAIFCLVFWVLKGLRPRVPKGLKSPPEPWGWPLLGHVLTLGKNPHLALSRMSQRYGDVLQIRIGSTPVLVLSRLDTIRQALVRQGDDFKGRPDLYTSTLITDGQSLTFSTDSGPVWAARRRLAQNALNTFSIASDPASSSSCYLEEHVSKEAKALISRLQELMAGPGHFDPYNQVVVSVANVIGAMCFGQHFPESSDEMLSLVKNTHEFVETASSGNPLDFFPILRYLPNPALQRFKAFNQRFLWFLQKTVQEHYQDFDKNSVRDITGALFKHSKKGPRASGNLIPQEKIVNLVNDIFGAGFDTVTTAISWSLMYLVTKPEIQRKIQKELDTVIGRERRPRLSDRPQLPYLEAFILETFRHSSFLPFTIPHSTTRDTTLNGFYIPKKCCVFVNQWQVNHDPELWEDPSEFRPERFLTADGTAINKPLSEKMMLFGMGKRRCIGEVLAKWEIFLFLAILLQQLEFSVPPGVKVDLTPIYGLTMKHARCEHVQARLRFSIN

[24] = Ratio of drug level in po dosed Sprague-Dawley rat brain to plasma; type: ADME, organism-based; conditions: read-out: BPR
Rattus norvegicus [25] = experiment: Ex vivo receptor occupancy at P2X7 in po dosed Sprague-Dawley rat brain after 60 mins by autoradiography; type: functional
Rattus norvegicus [26] = experiment: Ex vivo receptor occupancy at P2X7 in po dosed Sprague-Dawley rat brain assessed as plasma concentration required to achieve EC50 after 60 mins by autoradiography; type: functional, organism-based
[27] = Oral bioavailability in Sprague-Dawley rat at 5 mg/kg by LC-MS/MS analysis; type: ADME, organism-based; conditions: in vivo
[28] = Half life in Sprague-Dawley rat at 1 mg/kg, iv by LC-MS/MS analysis; type: ADME, organism-based; conditions: in vivo
[29] = Volume of distribution at steady state in Sprague-Dawley rat at 1 mg/kg, iv or 5 mg/kg, po by LC-MS/MS analysis; type: ADME, organism-based; conditions: in vivo, read-out: Vdss
[30] = Solubility of compound in phosphate buffer at pH 7 after 3 days; type: physicochemical
[31] = Clearance in Sprague-Dawley rat at 1 mg/kg, iv or 5 mg/kg, po by LC-MS/MS analysis; type: ADME, organism-based; conditions: in vivo
[32] = Solubility of compound in phosphate buffer at pH 2 after 3 days; type: physicochemical
[33] = Protein binding in human plasma at 1 uM after 6 hrs by equilibrium dialysis method; type: ADME, cell-free; conditions: read-out: PPB (converted)
[34] = Protein binding in mouse plasma at 1 uM after 6 hrs by equilibrium dialysis method; type: ADME, cell-free; conditions: read-out: PPB (converted)
[35] = Protein binding in rat plasma at 1 uM after 6 hrs by equilibrium dialysis method; type: ADME, cell-free; conditions: read-out: PPB (converted)
[36] = molecular target: Voltage-gated inwardly rectifying potassium channel KCNH2 (Homo sapiens, UniProt Q12809); experiment: Inhibition of [3H]-dofetilide binding to human ERG expressed in HEK293 cells; type: cell-based
Rattus norvegicus [37] = experiment: Drug level in Sprague-Dawley rat treated with(R)-(2-Chloro-3-(trifluoromethyl)phenyl)(4-methyl-1-(pyrimidin-2-yl)-1,4,6,7-tetrahydro-5H-[1,2,3]triazolo[4,5-c]pyridin-5-yl)methanone at 1 mg/kg, iv or 5 mg/kg, po by LC-MS/MS analysis; type: ADME, organism-based; conditions: in vivo

T2 sequence (P33261 whole entry): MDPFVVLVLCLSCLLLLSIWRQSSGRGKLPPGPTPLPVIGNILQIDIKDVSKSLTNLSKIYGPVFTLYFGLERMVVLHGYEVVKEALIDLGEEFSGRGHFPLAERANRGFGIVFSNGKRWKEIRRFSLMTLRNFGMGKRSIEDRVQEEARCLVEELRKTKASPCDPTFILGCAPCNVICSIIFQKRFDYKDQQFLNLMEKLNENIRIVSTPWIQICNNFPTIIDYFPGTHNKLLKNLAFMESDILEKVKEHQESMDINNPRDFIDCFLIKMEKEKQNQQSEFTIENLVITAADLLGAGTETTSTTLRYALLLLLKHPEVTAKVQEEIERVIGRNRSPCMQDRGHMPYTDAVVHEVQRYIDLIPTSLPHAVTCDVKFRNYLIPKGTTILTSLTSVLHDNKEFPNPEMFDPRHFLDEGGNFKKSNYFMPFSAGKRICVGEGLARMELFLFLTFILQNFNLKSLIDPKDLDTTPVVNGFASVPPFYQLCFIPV
T1 sequence (P11712 whole entry): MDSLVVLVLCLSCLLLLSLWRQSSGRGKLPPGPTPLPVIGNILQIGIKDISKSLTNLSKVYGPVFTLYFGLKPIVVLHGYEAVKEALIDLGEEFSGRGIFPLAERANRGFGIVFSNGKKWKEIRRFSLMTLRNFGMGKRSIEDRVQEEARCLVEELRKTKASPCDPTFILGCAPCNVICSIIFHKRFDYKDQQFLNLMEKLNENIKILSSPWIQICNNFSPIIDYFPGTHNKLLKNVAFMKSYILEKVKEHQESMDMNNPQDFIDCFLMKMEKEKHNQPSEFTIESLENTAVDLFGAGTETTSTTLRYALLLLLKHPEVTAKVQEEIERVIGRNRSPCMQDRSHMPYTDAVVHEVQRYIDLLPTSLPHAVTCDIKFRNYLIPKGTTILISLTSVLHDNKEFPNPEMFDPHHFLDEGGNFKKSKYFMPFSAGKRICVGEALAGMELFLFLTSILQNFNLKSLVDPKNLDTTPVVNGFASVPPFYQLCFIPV
Sequence of Cytochrome P450 2D6 (P10635 whole entry): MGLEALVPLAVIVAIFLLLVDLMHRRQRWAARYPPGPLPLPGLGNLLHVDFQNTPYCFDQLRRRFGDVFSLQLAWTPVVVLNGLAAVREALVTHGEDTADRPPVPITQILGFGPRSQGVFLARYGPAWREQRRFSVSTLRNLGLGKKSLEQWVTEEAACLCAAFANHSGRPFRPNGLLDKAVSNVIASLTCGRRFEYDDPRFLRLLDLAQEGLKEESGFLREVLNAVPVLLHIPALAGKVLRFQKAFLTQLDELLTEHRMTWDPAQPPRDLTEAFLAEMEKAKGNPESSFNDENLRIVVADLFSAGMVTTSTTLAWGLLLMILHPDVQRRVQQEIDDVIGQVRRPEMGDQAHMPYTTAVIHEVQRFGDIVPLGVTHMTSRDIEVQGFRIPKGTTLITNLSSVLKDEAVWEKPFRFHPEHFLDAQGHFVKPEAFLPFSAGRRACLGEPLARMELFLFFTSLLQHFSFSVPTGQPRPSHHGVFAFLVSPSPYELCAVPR
Sequence of Cytochrome P450 3A4 (P08684 whole entry): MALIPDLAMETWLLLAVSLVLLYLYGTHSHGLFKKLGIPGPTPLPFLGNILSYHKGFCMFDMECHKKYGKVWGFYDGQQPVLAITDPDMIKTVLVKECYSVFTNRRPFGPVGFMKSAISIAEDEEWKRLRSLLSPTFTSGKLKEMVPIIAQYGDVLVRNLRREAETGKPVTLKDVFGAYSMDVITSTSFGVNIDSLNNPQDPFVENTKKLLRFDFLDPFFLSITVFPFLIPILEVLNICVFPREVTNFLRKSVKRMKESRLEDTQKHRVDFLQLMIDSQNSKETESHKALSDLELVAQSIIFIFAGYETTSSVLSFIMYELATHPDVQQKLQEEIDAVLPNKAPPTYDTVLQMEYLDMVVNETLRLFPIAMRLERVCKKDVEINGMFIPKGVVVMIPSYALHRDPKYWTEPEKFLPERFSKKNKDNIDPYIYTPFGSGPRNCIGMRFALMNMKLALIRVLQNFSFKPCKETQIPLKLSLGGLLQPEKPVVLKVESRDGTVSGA
Sequence of Voltage-gated inwardly rectifying potassium channel KCNH2 (Q12809 whole entry): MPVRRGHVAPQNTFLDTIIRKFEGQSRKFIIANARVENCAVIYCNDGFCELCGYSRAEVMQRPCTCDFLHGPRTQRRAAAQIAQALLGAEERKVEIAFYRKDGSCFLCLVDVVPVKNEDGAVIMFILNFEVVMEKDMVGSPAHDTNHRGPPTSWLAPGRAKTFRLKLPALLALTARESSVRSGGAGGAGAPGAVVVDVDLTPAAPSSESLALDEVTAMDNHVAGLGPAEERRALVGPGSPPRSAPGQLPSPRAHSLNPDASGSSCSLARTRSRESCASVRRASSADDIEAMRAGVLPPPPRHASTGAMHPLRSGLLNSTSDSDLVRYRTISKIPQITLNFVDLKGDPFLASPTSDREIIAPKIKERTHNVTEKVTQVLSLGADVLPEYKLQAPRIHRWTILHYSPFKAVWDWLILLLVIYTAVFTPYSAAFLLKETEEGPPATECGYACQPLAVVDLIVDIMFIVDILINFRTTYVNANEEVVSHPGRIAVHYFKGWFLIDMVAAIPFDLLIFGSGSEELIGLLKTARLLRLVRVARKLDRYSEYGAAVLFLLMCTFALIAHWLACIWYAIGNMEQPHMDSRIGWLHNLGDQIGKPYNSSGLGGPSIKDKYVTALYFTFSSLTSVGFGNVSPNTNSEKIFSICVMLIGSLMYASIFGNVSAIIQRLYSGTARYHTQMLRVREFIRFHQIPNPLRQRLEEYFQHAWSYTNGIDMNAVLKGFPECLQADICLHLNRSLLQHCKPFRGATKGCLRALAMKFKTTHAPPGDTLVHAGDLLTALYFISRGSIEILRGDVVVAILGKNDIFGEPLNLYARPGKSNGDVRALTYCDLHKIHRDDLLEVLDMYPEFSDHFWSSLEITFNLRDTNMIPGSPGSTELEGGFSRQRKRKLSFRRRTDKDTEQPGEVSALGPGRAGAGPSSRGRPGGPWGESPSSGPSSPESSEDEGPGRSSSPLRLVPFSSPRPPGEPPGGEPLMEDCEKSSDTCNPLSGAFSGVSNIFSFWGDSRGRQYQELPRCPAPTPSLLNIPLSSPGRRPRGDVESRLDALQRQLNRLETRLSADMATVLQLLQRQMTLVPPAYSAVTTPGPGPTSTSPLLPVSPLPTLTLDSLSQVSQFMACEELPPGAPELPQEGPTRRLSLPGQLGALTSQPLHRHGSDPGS

concentration (Plasma): 175 µM | Drug metabolism (Cytochrome P450 2C9 [6]): Metabolite_Detected | Drug metabolism (Cytochrome P450 2C19 [7]): Metabolite_Detected | Drug metabolism (Rattus norvegicus [8]): Metabolite_Detected | dose excreted [9]: 0.4% | bioavailability [10]: 61% | bioavailability [11]: 5% | bioavailability [12]: 70% | half-life [13]: 24 min | half-life [14]: 48 min | half-life [15]: 660 min | Vd [16]: 1.1 L/kg | Vd [17]: 0.9 L/kg | Vd [18]: 1.3 L/kg | clearance [19]: 19 mL/min/kg | clearance [20]: 1.4 mL/min/kg | clearance [21]: 32 mL/min/kg | IC50 (Cytochrome P450 3A4): > 10 µM | IC50 (Cytochrome P450 2D6): > 10 µM | IC50 (Cytochrome P450 2C9 [22]): > 10 µM | IC50 (Cytochrome P450 2C19 [23]): > 10 µM | IC50 (Cytochrome P450 2C8): > 10 µM | IC50 (Cytochrome P450 1A2): > 10 µM | Kp [24]: 0.8 | Occ (Rattus norvegicus [25]): Dose-dependent effect | Cp (Rattus norvegicus [26]): 27 ng/mL | bioavailability [27]: 92% | half-life [28]: 30 min | Vd [29]: 1.5 L/kg | solubility at 72 h [30]: 180 µM (≈ 76.1 µg/mL) | clearance [31]: 66 mL/min/kg | solubility at 72 h [32]: > 400 µM | fraction unbound at 6 h, 1 µM [33]: 0.084 | fraction unbound at 6 h, 1 µM [34]: 0.074 | fraction unbound at 6 h, 1 µM [35]: 0.076
Compound: C[C@@H]1c2nnn(-c3ncccn3)c2CCN1C(=O)c1cccc(C(F)(F)F)c1Cl
Activity (Rattus norvegicus [1]): Toxic | Activity (Rattus norvegicus [2]): Toxic | Activity (Rattus norvegicus [3]): Toxic | Activity (Rattus norvegicus [4]): Toxic | Activity (Rattus norvegicus [5]): Toxic | ED50 (Rattus norvegicus [25]; 1 h): 0.9 mg/kg | IC50 [36]: > 10 µM

Drug metabolism (Rattus norvegicus [37]): Metabolite_Detected
Compound: C[C@@H]1c2nn[nH]c2CCN1C(=O)c1cccc(C(F)(F)F)c1Cl
